Source: PubChem BioAssay (NCI)
Where “and” joins values, the source holds several entries; their conditions need not be identical. Identical values can stand only once.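 Interpolation was linear, between the two tested concentrations surrounding the appropriate level; five concentrations were tested over 48 hours in 96-well plates. Here, GI50 denotes the concentration required for 50% inhibition of growth. TGI marks complete inhibition of growth.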

Legend:
Assay in all cases: growth of human tumour cells (NCI), 48 h
UACC-257 melanoma = tested on: UACC-257 melanoma
DU-145 prostate = tested on: DU-145 prostate
COLO 205 colon = tested on: COLO 205 colon
SF-268 CNS = tested on: SF-268 CNS
OVCAR-8 ovarian = tested on: OVCAR-8 ovarian
SW-620 colon = tested on: SW-620 colon
UACC-62 melanoma = tested on: UACC-62 melanoma
786-0 renal = tested on: 786-0 renal
IGROV1 ovarian = tested on: IGROV1 ovarian
PC-3 prostate = tested on: PC-3 prostate

| Compound | GI50 (UACC-257 melanoma) [µM] | TGI (UACC-257 melanoma) | GI50 (DU-145 prostate) [µM] | TGI (DU-145 prostate) [µM] | GI50 (COLO 205 colon) [µM] | TGI (COLO 205 colon) | GI50 (SF-268 CNS) [µM] | TGI (SF-268 CNS) [µM] | GI50 (OVCAR-8 ovarian) [µM] | TGI (OVCAR-8 ovarian) | GI50 (SW-620 colon) [µM] | TGI (SW-620 colon) | GI50 (UACC-62 melanoma) [µM] | TGI (UACC-62 melanoma) | GI50 (786-0 renal) [µM] | TGI (786-0 renal) | GI50 (IGROV1 ovarian) [µM] | TGI (IGROV1 ovarian) [µM] | GI50 (PC-3 prostate) [µM] | TGI (PC-3 prostate) [µM] |
| --- | --- | --- | --- | --- | --- | --- | --- | --- | --- | --- | --- | --- | --- | --- | --- | --- | --- | --- | --- | --- |
| Fc1c[c-]c(-c2ccccn2)c(F)c1.[CH3-].[Pt+2].c1ccc(P(C[PH+](c2ccccc2)c2ccccc2)c2ccccc2)cc1 | 0.696 | 2.93 µM | 1.06 | 6.47 | 0.485 | 2.07 µM | 0.86 | 6.88 | 0.63 | 5.76 µM | 0.52 | 1.49 µM | 0.545 | 1.89 µM | 0.75 | 1.65 µM | 0.47 | 1.86 | 0.373 | 1.53 |
| COc1ccc(-c2cc(/C=C/C(=O)c3cc(OC)c(OC)c(OC)c3)[nH]n2)cc1OC | 1.79 | 3.8 µM | 1.83 | 4.12 | 1.75 | 3.57 µM | 1.68 | 3.9 | 2.56 | 11.7 µM | 1.5 | 4.16 µM | 1.79 | 3.88 µM | 1.5 | 2.9 µM | 2.72 | 8.61 | 1.99 | 10.3 |
| NC(=O)c1cc(I)ccc1NC(=O)COc1ccccc1 | 41.7 | > 100 µM | 0.457 | 32.2 | 0.323 | 1.97 µM | 1.14 | 26.1 | 0.876 | > 100 µM | 0.432 | > 100 µM | 0.814 | > 100 µM | 0.957 | 18.8 µM | 2.34 | > 100 | 0.471 | > 100 |
| O=C(O)C1C(C(=O)O)C2(Cl)C(Cl)=C(Cl)C1(Cl)C2(Cl)Cl.[Cd] (stereo not given) | 15.5 | 30.7 µM | 17.8 | 34.5 | 20.5 | 38.6 µM | 18.1 | 36.8 | 28.8 | > 86.6 µM | 23.1 | 77.1 µM | 3.84 | 15.4 µM | 8.59 | 22 µM | 17.7 | 34.2 | 15.3 | 29.7 |
| C=CC(=O)Nc1cccc(Nc2nc(Nc3ccc(OCCOC(F)F)cc3)ncc2F)c1 | 5.56 | 47.5 µM | 1.96 | > 100 | 4.17 | 17.5 µM | 2.25 | 17.6 | 3.33 | 19.4 µM | 3.27 | > 100 µM | 1.73 | 11.1 µM | 1.32 | 12.1 µM | 1.88 | 9.61 | 4.01 | 27.1 |
| Cc1ccc(/C=C2\CNC/C(=C\c3ccc(C)cc3)C2=O)cc1 | 1.71 | 3.55 µM and 12.8 µM |  | 16 | 1.45 | 2.78 µM and 7.3 µM |  | 10.3 | 0.587 | 2.44 µM and 5.63 µM | 0.473 | 2.11 µM and 8.36 µM |  | 4.36 µM |  | 2.79 µM and 3.89 µM | 3.64 | 4.92 |  | 13.2 |
| CC[C@@]1(O)C(=O)OCc2c1cc1n(c2=O)Cc2cc3c(N)cccc3nc2-1 |  | 2.99 µM | 0.004 | < 0.0299 |  | 6.22 µM | 0.00728 | 3.06 | 0.0403 | 2.51 µM |  | 16.3 µM | 0.00361 | 0.033 µM and 0.0638 µM | 0.0048 | 0.0457 µM |  | 6.26 |  | > 100 |
| O=c1[nH]c2cc(Cl)c(Cl)cc2n2cc3ccccc3c12 | 20.3 | 48.6 µM | 18 | 31.8 | 29.6 | > 100 µM | 23.7 | 42.6 | 18.4 | 32.4 µM | 15.8 | 29.2 µM | 16.5 | 30.1 µM | 24.9 | 39.6 µM | 17.4 | 31.2 | 17.3 | 31.1 |
| Fc1cc(-c2nnc3n2N=C(c2ccc(Cl)cc2Cl)CS3)c(Cl)cc1Cl | 86 | > 100 µM | 49.5 | > 100 | 32.9 | > 100 µM | 36.6 | > 100 | 57.3 | > 100 µM | 36.8 | > 100 µM | 24.9 | 99.6 µM | 47.1 | > 100 µM | 50.4 | > 100 | 39.2 | > 100 |
| CCCCCCCCCCCCCCCCS(=O)(=O)c1ccc(NN)cc1 |  | > 10 µM |  | > 10 |  | > 10 µM |  | > 10 |  | > 10 µM |  | > 10 µM |  | > 10 µM |  | > 10 µM |  | > 10 |  | > 10 |
| O=C(Nc1ccccc1O)c1ccc(CNC(=O)c2ccsc2Nc2ccnc(C(F)(F)F)c2)cc1 | 1.52 | 7.03 µM | 2.12 | 5.67 | 3.4 | 13.4 µM | 2.69 | 15.1 | 1.57 | 19.1 µM | 2.5 | 10.5 µM | 1.43 | 4.83 µM | 2.29 | 5.34 µM | 2.8 | 13.5 | 1.94 | 20.8 |
| COc1cc(O)c(C(C)=O)c(O)c1 |  | > 100 µM |  | > 100 |  | > 100 µM |  | > 100 |  | > 100 µM |  | > 100 µM |  | > 100 µM |  | > 100 µM |  | > 100 |  | > 100 |
| CCN(CC)CCOc1ccc(/C=C2\CC3C4CC=C5C[C@@H](OC(C)=O)CC[C@]5(C)C4CC[C@]3(C)C2=O)cc1OC (stereo not given in full) | 6.97 | 31.6 µM | 3.87 | 16.6 | 15.9 | > 100 µM | 4.14 | 18.4 | 20 | 49 µM |  |  | 2.2 | 4.09 µM | 2.03 | 4.29 µM | 4.65 | 16.4 | 4.16 | 26.9 |
| O=C(O)Cn1ccnc1[N+](=O)[O-] |  | > 100 µM |  | > 100 |  | > 100 µM |  | > 100 |  | > 100 µM |  | > 100 µM |  | > 100 µM |  | > 100 µM |  | > 100 |  | > 100 |
| O=C(Nc1ccc(Cl)cc1)Nc1ccccc1CNc1nc(Nc2ccc(OCCN3CCCC3)cc2)ncc1Cl | 0.993 | 2 µM | 1.22 | 2.79 |  |  | 1.29 | 4.04 | 1.25 | 3.31 µM | 1.12 | 2.67 µM | 0.903 | 1.78 µM | 0.871 | 1.61 µM | 1.62 | 5.72 | 1.07 | 2.35 |
| COc1ccc2[nH]c(-c3ccccc3)cc2c1 | > 100 | > 100 µM | > 100 | > 100 | > 100 | > 100 µM | > 100 | > 100 | > 100 | > 100 µM | > 100 | > 100 µM | 92.5 | > 100 µM | > 100 | > 100 µM | > 100 | > 100 | > 100 | > 100 |
| O=C(Nc1cc(S(=O)(=O)c2ccc(Cl)cc2)ccc1Cl)c1cc(I)cc(I)c1O | 18.4 | 42.1 µM | 17.2 | 30.9 | 15.8 | 29.6 µM | 18.5 | 40.4 | 18.6 | 41.7 µM | 16.7 | 32 µM | 4.2 | 15.5 µM | 15.6 | 30 µM | 20 | 37.7 | 14.4 | 28.6 |
| COc1ccc2c(c1)nc1n2C(c2ccc(F)cc2)SC1 (stereo not given) | 28.7 | > 100 µM | 15.2 | > 100 | 16 | 37.4 µM | 33.8 | > 100 | 17.2 | 43.2 µM | 32.3 | > 100 µM | 16.6 | 34.9 µM | 60.8 | > 100 µM | 26.5 | 99.4 | 27.1 | > 100 |
| CC(C)(C)[Si](C)(C)OCC1OC(n2cnc3c(N)ncnc32)C(O)C1O (stereo not given) |  | > 100 µM |  | > 100 |  | > 100 µM |  | > 100 |  | > 100 µM |  | > 100 µM |  | > 100 µM |  | > 100 µM |  | > 100 |  | > 100 |
| COc1cc2cc(Oc3ccc(NC(=O)c4cccc5c4OCCO5)cc3)c(C)nc2cc1OC | 4.79 | 63.5 µM | 25.7 | > 100 | 4.95 | > 100 µM | 14.4 | > 100 | 3.68 | 29.8 µM | 49.9 | > 100 µM | 6.24 | > 100 µM | 4.7 | > 100 µM | 64.5 | > 100 | 2.49 | 16.2 |
| CCOCNc1ccc(N2C(=O)/C(=C/c3ccc(N(CC)CC)cc3)N=C2c2ccccc2)cc1 | > 100 | > 100 µM | > 100 | > 100 | 86.6 | > 100 µM | 7.73 | > 100 | 10.8 | > 100 µM | 41.5 | > 100 µM | 3.93 | 37.1 µM | 5.64 | 22.9 µM |  |  | 5.83 | > 100 |
| COc1ccc(NC(=O)c2sc3nc4c(cc3c2N)CCCC4)cc1 |  |  | 0.982 | > 100 | 0.876 | 6.46 µM | 0.899 | > 100 | 2.38 | > 100 µM | 0.429 | > 100 µM | 0.352 | > 100 µM | 0.36 | 30.5 µM | 0.929 | > 100 | 0.822 | > 100 |
| CCC(=O)c1cc([N+](=O)[O-])c(Br)s1 | 1.21 | 2.52 µM | 4.31 | 13.3 | 1.99 | 3.56 µM | 4.39 | 14.6 | 2.23 | 5.04 µM | 1.65 | 3.19 µM | 14.4 | 28.8 µM | 12.6 | 26.6 µM |  |  | 10.3 | 24.4 |
| Cc1n(Cc2ccc3ccccc3c2)c(Cl)c(Cl)[n+]1Cc1ccc2ccccc2c1 | 1.81 | 4.21 µM | 2.22 | 5.26 | 1.65 | 3.8 µM | 1.67 | 3.29 |  |  | 1.48 | 3.06 µM | 1.38 | 2.74 µM | 1.71 | 3.14 µM | 1.39 | 2.81 | 1.83 | 4.13 |
| c1ccc(CC(NCCNC(Cc2ccccc2)c2ccccc2)c2ccccc2)cc1 (stereo not given) | 1.02 | 2.4 µM | 0.395 | 1.87 | 0.191 | 0.382 µM | 0.801 | 7.12 |  |  | 0.401 | 1.38 µM | 0.491 | 1.86 µM | 0.383 | 1.59 µM | 0.605 | 2.84 | 0.409 | 1.78 |
| COc1ccccc1/C=C\C(=O)c1ccccc1 | 12.9 | 26.2 µM | 8.38 | 20.5 | 11.9 | 24.3 µM | 13.1 | 27 | 4.21 | 15 µM |  |  | 5.57 | 18.7 µM | 15 | 28.4 µM | 5.14 | 18.1 | 5.85 | 23 |
| C=C(CNCCc1ccc(O)cc1)[C@@H]1CC[C@]2(CO)CC[C@]3(C)[C@H](CC[C@@H]4[C@@]5(C)CCC(N)C(C)(C)[C@@H]5CC[C@]43C)[C@@H]12 (stereo not given in full) | 0.195 | 0.517 µM | 1.63 | 2.98 | 1.64 | 3.3 µM | 1.52 | 3.03 | 0.0235 | 1.39 µM | 0.915 | 2.27 µM |  |  | 1.52 | 3 µM |  |  | 1.44 | 2.98 |
